“Also recorded” adds a separate entry of the source. Like-named read-outs stand apart in the source and are kept apart here.
Tests used:
[1] = tested on: fully differentiated human airway epithelium (MUCILAIR™); test: Acute toxicity on […] (LDH release, TEER, morphology); format: cell-based
Description: Controlled in vitro evaluation of BisEDT, with respect to potential cytotoxicity on fully differentiated human airway epithelium was carried out. Both solubilized and solid (powder/particulate) forms of BisEDT were evaluated for cytotoxicity by Epithelix, a contract research organization (CRO) specializing in this form of cytotoxicity evaluation utilizing a proprietary, in vitro fully differentiated human airway epithelium test system ([…]™) The […]™ system facilitated evaluation of cytotoxicity through both LDH release (from the culture medium side) and trans-epithelial electrical resistance (TEER) from the apical/air-exposed side as well as pre- and post-exposure microscopic examination for morphological changes (FIG. 13).
The assay system used in this study is Epithelix's proprietary technology […]™ […]™ is a fully differentiated and ready-to-use 3D model of human airway epithelium, constituted with primary human epithelial cells freshly isolated from nasal, tracheal or bronchial biopsies. […]™ (FIG. 24), is not only morphologically and functionally differentiated, but can also be maintained in a homeostatic state for a long period of time (Huang et al., 2009).
[…]™ is composed of basal cells, ciliated cells and mucus cells. The proportion of these various cell types is preserved compared to what one observes in vivo (Huang et al., 2011). Moreover the epithelia are started from de-differentiated cells. The cells undergo a progressive differentiation with time. After 45 days of culture, the epithelia are fully ciliated, secret mucus and are electrically tight (TEER>200 Ω.cm^2). The activity of the main epithelial ionic channels, such as CFTR, EnaC, Na/K ATPase, is preserved and the epithelia is shown to respond in a regulated and vectorial manner to the pro-inflammatory stimulus, TNF-α (Huang et al., 2011). A large panel of cytokines, chemokines and metalloproteinases has been detected in […]™ (e.g. IL-8, IL-6, GM-CSF, MMP-9, GRO-α).
BisEDT (MB-1-B3) was applied on the apical surface of […]™ during 1, 8, 24 and 48 hours (FIG. 13). The effect of 6 concentrations was studied: 0.001, 0.01, 0.1, 1, 10 and 30 μM. […] 30 μl solution at the selected concentration was applied on the apical surface of […]™. The negative control corresponds to the vehicle solution (0 μM) and untreated cultures. The positive control corresponds to 50 μl to 10% Triton X-100 diluted in a buffered saline solution. The study was run in triplicates.
During the study, inserts were maintained in a CO2 incubator (37° C., 5% CO2, 100% humidity). The following end-points were determined: • Tissue integrity monitoring: Trans-Epithelial Electrical Resistance (TEER) measurement (quantitative) at D0, D1 and D2. • Cytotoxicity monitoring: LDH test (quantitative) at D0, D1 and D2. • Morphology: cellular and tissue integrity examined under contrast microscope at D0, D1 and D2.
Three days before the experiment, the following quality controls were performed on each epithelium: • Washing: inserts were washed with 200 μl of […]™ culture medium. Washing removes accumulated mucus on the tissue surface which may interfere with the test. • Trans-Epithelial Electrical Resistance (TEER): TEER was measured to verify that all the selected inserts had tight epithelial barriers and the tissue itself was not disrupted prior to application of the test material. • Tissue morphology: each insert was inspected under a conventional inverted microscope to ensure the quality of the epithelia and determine qualitatively that cilia motion was visible. The presence of mucus was detected by the refractive aspect of the apical surface. Results
Compound BisEDT was applied on the apical surface of […]™. The effect of 5 concentrations after 1, 8,24 and 48 hours exposure was studied: 0.033, 0.33, 3.33, 33.3, 333 μg/cm^2. […]

[2] = tested on: P. aeruginosa; conditions: P. aeruginosa isolate 103; CLSI QC range shown in parenthesis; cited from earlier work
[3] = tested on: Neisseria gonorrhoeae; test: Agar dilution MIC (Example 11); format: cell-based
[4] = tested on: A. flavus; test: Broth microdilution antifungal susceptibility (Example 13); format: cell-based; conditions: Aspergillus flavus
[5] = tested on: Escherichia coli; conditions: E. coli MMX 102 (ATCC 25922); CLSI QC ranges shown in parenthesis; cited from earlier work
[6] = solid, 0.033 and 0.33 μg/cm^2, all tested time points
[7] = solution, all tested concentrations and time points

Question: With `C1C[S][Bi]([S]CC[S][Bi]2[S]CC[S]2)[S]1` [BisEDT, bismuth-1,2-ethanedithiol] as the compound, how does the “toxic effects (morphology, LDH release, TEER), BisEDT in solution” value ([1]; 0.001-30 μM (30 uM = 20.83 ug/mL) apical, 1, 8, 24, 48 hours) read?
Answer: no toxic effects were observed; also recorded: no local toxicity

Question: What about the “toxic effects (morphology, LDH release, TEER), particulate BisEDT in dextran” value ([1]; lower two concentrations (0.033, 0.33 μg/cm^2), up to 48 hours) of the same compound?
Answer: no toxic effects were observed

Question: And the “TEER (tissue integrity)” value ([1]; solid, 1 μg/cm^2, 8, 24 and 48H)?
Answer: Loss of tissue integrity

Question: And the “LDH release (cytotoxicity)” value ([1]; solid, 1 μg/cm^2, 8, 24 and 48 h)?
Answer: time- and dose-dependent cytotoxicity

Question: What about the “LDH release (cytotoxicity)” value ([1]; solid, 1 μg/cm^2, 1 hour) of the same compound?
Answer: No significant effect

Question: What about the “TEER (tissue integrity)” value ([1]; solid, 1 μg/cm^2, 1 hour) of the same compound?
Answer: no significant effect

Question: And the Morphology after exposure ([1]; solid, 1 μg/cm^2, 1 hour and 8 hour)?
Answer: no important morphological changes were observed

Question: What about the Morphology after exposure ([1]; solid, 1 μg/cm^2, 24 h) of the same compound?
Answer: epithelial cells on 2 inserts out of 3 were dead

Question: What about the Morphology after exposure ([1]; solid, 1 μg/cm^2, 48 h) of the same compound?
Answer: epithelial cells on all 3 inserts were dead

Question: What about the Morphology after exposure ([1]; solid, 3.33 μg/cm^2, 24 and 48 h) of the same compound?
Answer: Cells were rounded and opaque at the periphery of inserts

Question: And the Morphology after exposure ([1]; solid, 0.033 and 0.33 μg/cm^2)?
Answer: No morphological modifications were observed

Question: And the “LDH release (cytotoxicity)” value [1, 6]?
Answer: No significant effect

Question: And the “TEER (tissue integrity)” value [1, 6]?
Answer: No significant effect

Question: And the “cytotoxicity (LDH increase, TEER reduction)” value ([1]; solid, 1 and 3.33 μg/cm^2, 24 h and 48 h)?
Answer: induces cytotoxicity

Question: And the “LDH release (cytotoxicity)” value ([1]; solid, 3.3, 33.3 and 333 μg/cm^2, beyond 1 hour)?
Answer: time and dose dependent increase in LDH release; also recorded: time and dose dependent, cytotoxicity

Question: And the “TEER (tissue integrity)” value ([1]; solid, 3.33, 33.3 and 333 μg/cm^2, 8, 24 and 48H exposure)?
Answer: Loss of tissue integrity

Question: And the “toxicity (LDH, TEER, morphology)” value ([1]; solid, 33.3, 333 μg/cm^2)?
Answer: strong toxicity

Question: And the Morphology after exposure ([1]; solid, 33.3 and 333 μg/cm^2, 8, 24 and 48 h)?
Answer: Cells were rounded and opaque on the inserts

Question: What about the “TEER (tissue integrity)” value ([1]; solid, all tested doses, 1 hour exposure) of the same compound?
Answer: no significant effect

Question: What about the Morphology after exposure [1, 7] of the same compound?
Answer: No morphology changes were observed

Question: And the “TEER (tissue integrity)” value [1, 7]?
Answer: didn't show significant effect

Question: And the “LDH release (cytotoxicity)” value ([1]; solution, all tested concentrations and time-points)?
Answer: not altered

Question: What about the “MIC, CLSI QC range” value [2] of the same compound?
Answer: (0.5-4) μg/mL

Question: Which MIC ([3]; ATCC49226, N. gonorrhoeae MMX 683 (ATCC 49226), QC) does the source give for `CC(S)C(C)S.[Bi]` (stereo not drawn) [BisBDT, bismuth-2,3-butanedithiol] here?
Answer: 0.06 µg/mL

Question: And the MIC ([3]; N. gonorrhoeae MMX 6757, CTX NS)?
Answer: 0.06 µg/mL

Question: And the MIC ([3]; N. gonorrhoeae MMX 6791, CIP^R)?
Answer: 0.12 µg/mL

Question: What about the MIC ([3]; N. gonorrhoeae MMX 6792, CIP^R) of the same compound?
Answer: 0.12 µg/mL

Question: What about the MIC ([3]; N. gonorrhoeae MMX 6793, CIP^R) of the same compound?
Answer: 0.25 µg/mL

Question: And the MIC ([3]; read-out: MIC values, QC isolate, ciprofloxacin-resistant, ceftriaxone non-susceptible isolates)?
Answer: 0.06 to 0.25 µg/mL

Question: What about the MIC ([4]; ATCC22546, A. flavus ATCC 22546, 24 hr, read-out: MIC0 24 hr) of the same compound?
Answer: 1 µg/mL

Question: What about the MIC ([4]; ATCC22546, A. flavus ATCC 22546, 48 hr, read-out: MIC0 48 hr) of the same compound?
Answer: 2 µg/mL

Question: What about the MIC ([4]; ATCC204304, A. flavus ATCC 204304, 24 hr, read-out: MIC0 24 hr) of the same compound?
Answer: 4 µg/mL

Question: What about the MIC ([4]; ATCC204304, A. flavus ATCC 204304, 48 hr, read-out: MEC at 48 hr (MIC0 not observed)) of the same compound?
Answer: 4 µg/mL

Question: And the MIC ([4]; A. flavus MMX 7935, 24 hr, read-out: MIC0 24 hr)?
Answer: 8 µg/mL

Question: What about the MIC ([4]; A. flavus MMX 7935, 48 hr, read-out: MIC0 48 hr) of the same compound?
Answer: 8 µg/mL

Question: Which “CLSI QC range of MIC” value [5] does the source give for `C[C@@H](O)[C@H]1C(=O)N2C(C(=O)O)=C(S[C@@H]3CN[C@H](C(=O)N(C)C)C3)[C@H](C)[C@H]12` [Meropenem, reference compound] here?
Answer: (0.008-0.06) μg/mL

From US11464749B2, “Bismuth-thiol compositions and methods of use” (Microbion Corporation, priority 2018, dated 2022)
